Reference: patent US20250195534A1 (AXSOME THERAPEUTICS, INC., priority 2022, published 2025)

Test: Phase 3 randomized, double-blind, placebo- and active-controlled trial of meloxicam/rizatriptan in acute treatment of migraine (Example 1, MOMENTUM)
[1] = treatment-emergent adverse event

## CN(C)CCc1c[nH]c2ccc(Cn3cncn3)cc12 [Rizatriptan]
[…] after dosing, single dose
  proportion of patients experiencing pain relief: 52.5%
From 2 hours to 24 hours after dosing
  percentage of patients experiencing sustained pain relief: 43.9%
From 2 hours to 48 hours
  proportion of patients with sustained pain freedom: 8.8%
Single dose
  Any Treatment-Emergent Adverse Event, number of subjects: 67 subjects
[1]
  Dizziness, % of subjects: 2.1%
  Dizziness, number of subjects: 9 subjects
  Nausea, % of subjects: 4.8%
  Nausea, number of subjects: 21 subjects
  Somnolence, % of subjects: 2.1%
  Somnolence, number of subjects: 9 subjects
